According to patent publication US20130289070A1, “Use of Levocabastine for Modulating Generation of Pro-Inflammatory Cytokines” (Bausch & Lomb Incorporated, priority 2007, published 2013):

Assays:
[1] = tested on: EoL-1 (human eosinophilic leukaemia cell line) cells; experiment: TNF-α-induced cytokine release, non-differentiated EoL-1 cells (NO PMA) (Luminex); assay type: cell-based; conditions: 24 h, Bio1211 vs TNF-α
Method: (§1) EoL-1 (human eosinophilic leukaemia cell line) cells (Saito et al., 1985; Mayumi, 1992) were maintained in RPMI-1640 medium with L-glutamine supplemented with 10% (v/v) FBS at 37° C. in a humidified atmosphere with 5% CO2. Where indicated, 24 h before the experiment 25 ng/mL PMA ((phorbol 12-myristate 13-acetate, purchased from Sigma Aldrich) was added to the medium to induce eosinophil granulation and differentiation (Ohtsu et al., 1993; Zimmermann et al., 2000).
(§2) Half-million cells were aliquoted per point in a 24 well plate; each experiment was performed in triplicate and carried out in parallel with eosinophils differentiated and non differentiated with PMA (25 ng/mL, 24 h). Cells were suspended in low serum medium (RPMI-1640, 0.1% (v/v) FBS). TNF-α was used to induce cytokine secretion as previously described by Steube et al. (2000), and the net release was obtained by comparison to the basal (non-TNF-α treated). In the first experiment we evaluated the concentration and time relation between TNF-α stimulation and cytokine release. Therefore, 5, 10, and 25 ng/mL of TNF-α was administered to the cells at 0, ½, 1, 2, 3, 6, 12 and 24 h (data not shown). An aliquot of 150 μL of supernate was collected for cytokines' analysis. […] Differentiated and non-differentiated EoL-1 cells were exposed from 0.1 to 2.3 mM levocabastine ([…]Levocabastine 0.05% solution eye drops containing cyclodextrins, without benzalkonium chloride), and aliquots of the supernates were collected after 12 and 24 h. The content of cytokines at time zero was estimated by treating the cells with 400 nM calcimycin (A-23187), which is a cytolytic agent that frees all the mediators from the cytoplasmic compartment. In addition, for each experiment we tested the effect of the vehicle, which was added to the wells in a concentration equal to the maximum amount used for drug dilution.
(§3) Samples (supernates 12 and 24 h) in triplicate were analyzed using Luminex 200™ (Luminex, Austin, Tex.) and Beadview software v1.0 (Upstate Cell Signaling Solutions, Temecula, Calif.).
(§4) All data are presented as mean±SEM for the indicated number of experiments. Statistical significance was determined by Newman-Keuls test after ANOVA using GraphPad Prism (version 3.0; GraphPad Software Inc., San Diego, Calif., USA). P-values<0.05 were considered to be significant.

[2] = tested on: EoL-1 (human eosinophilic leukaemia cell line) cells; experiment: TNF-α-induced cytokine release, EoL-1 cells differentiated with PMA (Luminex); assay type: cell-based; conditions: 24 h, Bio1211 vs TNF-α
Method: as §1, §2, §3, §4

## 4-((2-methylphenyl)aminocarbonyl)-aminophenyl)acetyl-Leu-Asp-Val-Pro-OH [Bio1211]
[1]
  Fractalkine (NO PMA), p of decrement: P < 0.05
  G-CSF (NO PMA), p of decrement: ns
  GM-CSF (NO PMA), p of decrement: P < 0.05
  IL-1ra (NO PMA), p of decrement: P < 0.001
  IL-1α (NO PMA), p of decrement: ns
  IL-1β (NO PMA), p of decrement: ns
  IL-5 (NO PMA), p of decrement: ns
  IL-6 (NO PMA), p of decrement: P < 0.05
  IL-7 (NO PMA), p of decrement: ns
  IL-8 (NO PMA), p of decrement: P < 0.001
  IL-10 (NO PMA), p of decrement: ns
  IL-12p40 (NO PMA), p of decrement: P < 0.05
  IP-10 (NO PMA), p of decrement: P < 0.001
  MCP-1 (NO PMA), p of decrement: ns
  MIP-1α (NO PMA), p of decrement: ns
  MIP-1β (NO PMA), p of decrement: ns
  RANTES (NO PMA), p of decrement: ns
  TGF-α (NO PMA), p of decrement: ns
  VEGF (NO PMA), p of decrement: ns
[2]
  Fractalkine (PMA), p of decrement: ns
  G-CSF (PMA), p of decrement: ns
  GM-CSF (PMA), p of decrement: ns
  IL-1ra (PMA), p of decrement: ns
  IL-1α (PMA), p of decrement: P < 0.05
  IL-1β (PMA), p of decrement: ns
  IL-5 (PMA), p of decrement: ns
  IL-6 (PMA), p of decrement: ns
  IL-7 (PMA), p of decrement: ns
  IL-8 (PMA), p of decrement: ns
  IL-10 (PMA), p of decrement: ns
  IL-12p40 (PMA), p of decrement: P < 0.05
  IP-10 (PMA), p of decrement: P < 0.001
  MCP-1 (PMA), p of decrement: P < 0.001
  MIP-1α (PMA), p of decrement: ns
  MIP-1β (PMA), p of decrement: ns
  RANTES (PMA), p of decrement: ns
  TGF-α (PMA), p of decrement: ns
  VEGF (PMA), p of decrement: P < 0.05
